Patent publication US20220362275A1, “Method and Compositions for Treating Glioblastoma” (PHOENIX BIOTECHNOLOGY, INC., priority 2019, published 2022)
Entries after “also recorded” stand apart in the source; their conditions may differ. Like-named read-outs stand apart in the source and are kept apart here.

Tests used:
[1] = test system: caspase 3, 8 and 9 in human GBM U87MG, U251 and T98 cells; test: Caspase 3, 8 and 9 enzymatic activity (chromogenic substrates); format: cell-based; details: pan-caspase inhibitor added
Procedure: For cell cycle analysis, cells (2.5×10^6) grown in 100-mm dishes were treated with PBI-05204 (0.5-2.5 μg/ml) for 24 hr. Cells were subjected to trypsinization and centrifugation, and the pellets were suspended and washed in 1× phosphate-buffered saline solution (PBS) and were fixed overnight in 70% ethanol at 4° C. The cells were then washed with 1×PBS and were suspended in PBTB staining solution containing PBS, 0.5% bovine serum albumin (BSA), 0.005% Tween-20, propidium iodide (10 μg/ml) and DNase-free RNase (1 μg/ml). Cells were incubated in the dark for 30 min at 37° C. before fluorescence-activated cell-sorting (FACS) analysis using a BD FACS Caliber flow cytometer (BD Biosciences, San Jose, Calif.). The percentage of cells in each phase of the cell cycle was estimated from the DNA histogram content. Apoptosis was evaluated by APOSTRAND™ ELISA apoptosis detection kit (3V Chimica S.r.l. Rome, Italy) and by caspase-specific chromogenic substrates at 450 nm in an ELISA plate reader such as Ac-DEVD-pNA (caspase-3), Ac-IETD-pNA (caspase 8) and Ac-LEHD-pNA (caspase 9) purchased from Kaneka Eurogentec SA (Seraing, Belgium).

GBM [2] = details: cited from earlier work
[3] = cited from earlier work
GS28 stem cell line = test: High throughput growth/viability assay (Cell Titer Glo-3D), GS28; format: cell-based; details: FIG. 17D
Procedure: (§1) A total of 500 GBM9 cells or 1,000 GS28 cells per well suspended in 50 ul of media are seeded into Greiner Black 384-well plates (Cat #781091) using Multidrop Combi liquid dispenser (ThermoFisher).
(§2) The cells are allowed to recover and form a monolayer overnight at 37 C in a humidified chamber with 5% CO2.
(§3) After recovery, 50 nl of each drug are transferred into well using an Echo 550 acoustic dispensing platform (Labcyte).
(§4) In the combination screen, two or three drugs are tested with a fixed volume of DMSO ([…]) and two biological replicates. Each assay plate contains a fixed concentration of drug in addition to a negative control (0.1% DMSO), a positive control (10 uM Doxorubicin), and an 8-point dose response curve of the positive controls. Each well image is taken using the ImageXpress Micro Conforcal High Content Imaging System (MolecularDevices) everyday four times.
(§5) After 72 hr incubation in the presence of drug, plates are aspirated for left 25 ul and then, 25 ul of Cell Titer Glo-3D (Promega) are added and incubated for 20 minutes. Assay plates are read on the Synergy Neo2 Hybrid Multi-Mode Microplate Reader (BioTek).

GBM9 stem cell line = test: High throughput growth/viability assay (Cell Titer Glo-3D), GBM9; format: cell-based; details: FIG. 17E
Procedure: as §1, §2, §3, §4, §5

[4] = Oral bioavailability anticipated from human clinical data; details: in vivo, based on human clinical data, read-out: part of an administered dose orally bioavailable
GBM [5] = details: addition to standard treatment; cited from earlier work
[6] = all concentrations ranging from 1×10^−4.5 to 1×10^−7 M

z-VAD-fmk
PBI-05204 induced caspase 3 activity [1]: largely inhibited

Cn1nnc2c(C(N)=O)ncn2c1=O [TMZ, temozolomide]
grade ≥3 toxicity (GBM [2]; ddTMZ arm): 53%
grade ≥3 toxicity (GBM [2]; sdTMZ arm): 34%
entry into the cerebrospinal fluid ([3]; in vivo): readily enters
pharmacokinetics ([3]; in vivo): linear
bioavailability ([3]; oral): excellent

CC1(C)CC[C@]2(C(=O)O)CC[C@]3(C)C(=CC[C@@H]4[C@@]5(C)CC[C@H](O)C(C)(C)[C@@H]5CC[C@]43C)[C@@H]2C1 [oleanolic acid]
activity (inhibition of growth of GBM stem cells) (GS28 stem cell line; [6]): very poor activity
activity (inhibition of growth of GBM stem cells) (GBM9 stem cell line; [6]): very poor activity; also recorded: little to no activity

C[C@H]1[C@H](C)CC[C@]2(C(=O)O)CC[C@]3(C)C(=CC[C@@H]4[C@@]5(C)CC[C@H](O)C(C)(C)[C@@H]5CC[C@]43C)[C@H]12 [Ursolic acid, ursolic acid]
activity at concentrations below about 5.6 microM (GS28 stem cell line): little to no activity
activity at concentrations below about 10 microM (GBM9 stem cell line): little to no activity

CO[C@H]1C[C@H](O[C@H]2CC[C@@]3(C)[C@H](CC[C@@H]4[C@@H]3CC[C@]3(C)[C@@H](C5=CC(=O)OC5)[C@@H](OC(C)=O)C[C@]43O)C2)O[C@@H](C)[C@@H]1O [oleandrin]
bioavailability [4]: 50 to 75%

bevacizumab
overall survival (OS) (GBM [5]): no increase
progression-free survival (PFS) (GBM [5]): improved
